Data from article PMC3600310, “Phage Display Screening for Tumor Necrosis Factor-α-Binding Peptides: Detection of Inflammation in a Mouse Model of Hepatitis” (International Journal of Peptides, 2013).

Tests used:
[1] = target: human TNF-α; assay: ELISA estimation of apparent dissociation constant (Kd*) between phage clones and TNF-α; assay type: binding; details: phage clones; ELISA Kd* on BSA divided by Kd* on TNF-α
Procedure: (a) Estimation of the Apparent Dissociation Constant (K d*) between the Phage Clones and TNF-α. The K d* of phage clones against their target was assessed by the ELISA (enzyme-linked immunosorbent assay) method, using a range of phage dilutions incubated with the specific target.
ELISA plates were treated overnight with the target solution (human TNF-α, 0.01 mg/mL, at 4°C). The next day, the target solution was replaced by the blocking solution as described above. Plates were then incubated for 2 h at 37°C with serial phage dilutions (6.5 × 10^−11 – 3.3 × 10^−8 M) prepared in PBS containing 0.3% Tween 20. After rinsing the plate 6 times with the same buffer, phages were detected with a peroxidase-conjugated anti-M13 monoclonal antibody (Amersham Pharmacia Biotech Benelux, Roosendaal, The Netherlands) diluted 1 : 5000 in the blocking buffer. The peroxidase detection was performed using 2,2′-azino-bis[3-ethylbenztiazoline-6-sulfonic acid, diammonium salt] (ABTS, Sigma-Aldrich; 22 mg in 100 mL of 50 mM sodium citrate, pH 4.0) supplemented with 0.05% H2O2. After 30–60 min of incubation at room temperature, the OD405 values were measured on a microplate reader (Stat-Fax-2100, Awareness Technology Inc., Fisher Bioblock Scientific, Tournai, Belgium) for K d* evaluation.

[2] = system: TNF-α; assay: TNF-α detection by biotinylated 2C and 2L peptides in liver histological sections; parameters: species or system mouse; details: biotinylated peptide 20 μM overnight, ABC complex/DAB, ex vivo
Procedure: Adult mice (n = 6) received a single i.p. injection of 20 mg/Kg of ConA [21], a lymphocyte T activator producing inflammation in mice liver.
Mice were sacrificed 2 hours after intravenous injection of ConA, and their livers were fixed for 24 h in 4% paraformaldehyde. After fixation, the liver was dehydrated by several alcohol and butanol soakings and the organ was subsequently embedded in paraffin according to standard procedures. Sections of 4-micrometer thickness were cut for histological tests.
TNF-α detection by the phage display-selected 2C and 2L peptides was carried out with the same protocol as for anti-TNF-α polyclonal antibody (see Section 2.4.2). Briefly, liver sections were incubated overnight with the biotinylated peptides (20 μM). Reactive sites were detected with the ABC complex and DAB staining.

[3] = ELISA interaction of biotinylated peptides with PFBB coated plate (no target); assay type: binding; details: free biotinylated peptide; plate coated with protein-free blocking buffer only; Kd* values could not be estimated
Procedure: The affinity of the selected peptides was evaluated by ELISA as for the phage clones (see Section 2.1.3). The target was immobilized overnight on a 96-well plate at 4°C before a 2-hour incubation with a protein-free blocking buffer solution (PFBB, Pierce, Aalst, Belgium) and then with a range of peptide dilutions: 10^‒3 M to 10^‒6 M. The target-bound biotinylated peptides were detected using ABC (Avidin Biotin Complex) and ABTS solutions as described above. The dissociation constant was estimated from the inflection point of the curve.

[4] = system: human TNF-α; assay: ELISA competition of phage clones with an anti-TNF-α antibody; assay type: binding; details: for IC50: antibody concentration that inhibits by 50% the phage-TNF-α interaction, antibody 1.3 × 10^−9 to 6.66 × 10^−7 M pre-incubated 30 min, then phage at Kd* concentration 1 h, high IC50 = strong phage binding, read-out: IC50 of the anti-TNF-α antibody against the phage clone; for IC50 Ab anti-TNF-α/Kd clone ratio: phage clones, IC50 of the anti-TNF-α antibody divided by Kd* of the clone
Procedure: (b) Competition Experiments with an Anti-TNF-α Antibody. Competition experiments were performed in the same manner as the K d* experiments except that clones were set in competition with an anti-TNF-α antibody (R&D Systems Inc., Abington, UK) in dilutions ranging from 1.3 × 10^−9 to 6.66 × 10^−7 M in a PBS solution. Plates were first incubated for 30 min with 50 μL/well of antibody dilutions before a one-hour incubation with 50 μL of phage solutions at the K d* concentration. The IC50 of the anti-TNF-α antibody is the antibody concentration required to inhibit by 50% the interaction between phages and TNF-α.
The objective of this test is to set up a competition between every phage clone and another ligand of the target to calculate an inhibition constant value (IC50).

For “C-NNPLKSL-C (disulfide) [Clone C47-R4, phage clone 47 from round 4 displaying cyclic heptapeptide C-NNPLKSL-C]”, the “Kd BSA/Kd TNF-α ratio” value [1] was 0.02.

For “PATLTSL [Clone 2L, biotinylated linear form of the PATLTSL peptide (peptide 2)]”, the “Staining of liver sections of ConA-treated mice” value ([2]; C57BL/6 mice, ConA 20 mg/Kg, sacrificed 2 hours after injection) was “did not yield such a result” and the “Interaction with the PFBB coated plate” value [3] was “only a weak interaction”.

In the case of “C-GSKTQAP-C (disulfide) [Clone C2-R3, phage clone 2 from biopanning round 3 displaying cyclic heptapeptide C-GSKTQAP-C]”, the IC50 [4] is reported as 112 nM, the “IC50 Ab anti-TNF-α/Kd clone ratio” value [4] is reported as 1087 and the “Kd BSA/Kd TNF-α ratio” value [1] is reported as 6 × 10^6.

For “C-PATLTSL-C (disulfide) [Clone C30-R3, phage clone 30 from round 3 displaying cyclic heptapeptide C-PATLTSL-C]”, the IC50 [4] was 127 nM, the “IC50 Ab anti-TNF-α/Kd clone ratio” value [4] was 6195 and the “Kd BSA/Kd TNF-α ratio” value [1] was 4.2 × 10^6.

In the case of “(C-)PATLTSL(-C) (disulfide) [Clone 2C, biotinylated cyclic form of the PATLTSL peptide (peptide 2)]”, the “Staining of healthy liver sections” value [2] is reported as “did not show such a staining” and the “Interaction with the PFBB coated plate” value [3] is reported as “only a weak interaction”.
